The source of these data is patent publication US8188086B2, “Specific salt, anhydrous and crystalline form of a dihydropteridione derivative” (Boehringer Ingelheim International GmbH, priority 2006, dated 2012).

Common to all, as to type: physicochemical
Data set [1] can be described thus: Stability of hydrate / anhydrous form (humidity, ambient conditions, heating). An excerpt:
Under standard conditions the crystalline trihydrochloride salt form of N-[trans-4-[4-(cyclopropylmethyl)-1-piperazinyl]cyclohexyl]-4-[[(7R)-7-ethyl-5,6,7,8-tetrahydro-5-methyl-8-(1-methylethyl)-6-oxo-2-pteridinyl]amino]-3-methoxy-benzamide according to the invention is present in the form of an hydrate and is obtainable after drying with a changing stoichiometry (1-3 water equivalents). The hydrate with a stoichiometry close to a trihydrate seems to be the stable hydrated form under ambient conditions and can be obtained after conditioning of the dried material. The crystal water is tightly bound.
At about 260° C. another strong endothermic peak can be observed in the DSC-diagram, indicating melting of the dehydrated form. The onset of this melting event is at about 245° C. Melting occurs, however, under decomposition, indicated by the accompanied weight loss upon melting. When performing a TG-IR coupling experiment, it can be shown that hydrochloric acid is released upon decomposition. The respective anhydrous form, obtained by heating a sample up to 140° C. is not stable.

Another data set is described as follows: physchem. The method, then:
This hydrated form of the trihydrochloride salt of the compound N-[trans-4-[4-(cyclopropylmethyl)-1-piperazinyl]cyclohexyl]-4-[[(7R)-7-ethyl-5,6,7,8-tetrahydro-5-methyl-8-(1-methylethyl)-6-oxo-2-pteridinyl]amino]-3-methoxy-benzamide of formula (I) is highly soluble (>10 mg/ml) in propylenglycol, glycofurol, Cremophor RH40 (30% aqueous solution), Poloxamer 188 (20% aqueous solution), Solutol HS 15 (20% aqueous solution) as well as HP-β-cyclodextrin (20%-, 10%-, 5%-aqueous solutions). • Solid state properties of an hydrated form of the trihydrochloride salt of N-[trans-4-[4-(cyclopropylmethyl)-1-piperazinyl]cyclohexyl]-4-[[(7R)-7-ethyl-5,6,7,8-tetrahydro-5-methyl-8-(1-methylethyl)-6-oxo-2-pteridinyl]amino]-3-methoxy-benzamide. • Appearance

The nature of data set [2]: Solubility in aqueous media.
Data set [3] is described as follows: Solid state stability under harsh stress conditions. An excerpt: No significant decomposition or impurities (Σ<2.4%) can be observed under the applied stress conditions.

`CC[C@@H]1C(=O)N(C)c2cnc(Nc3ccc(C(=O)N[C@H]4CC[C@H](N5CCN(CC6CC6)CC5)CC4)cc3OC)nc2N1C(C)C.Cl` [N-[trans-4-[4-(cyclopropylmethyl)-1-piperazinyl]cyclohexyl]-4-[[(7R)-7-ethyl-5,6,7,8-tetrahydro-5-methyl-8-(1-methylethyl)-6-oxo-2-pteridinyl]amino]-3-methoxy-benzamide]: the “stability under ambient conditions compared to the anhydrous form” value in data set [1] (ambient conditions) is “advantage of stability under ambient conditions”. Moreover, the “weight loss on lowering the humidity” value in data set [1] (humidity down to 10% r.h.) is given as “does not result in a significant weight loss”. Further, the solubility was more than 10000 µg/mL in the data set “physchem”; more than 10000 µg/mL in “physchem” (aqueous with cosolvent or surfactant or cyclodextrin); more than 10000 µg/mL in the data set “physchem” (organic solvent or mixture); more than 10000 µg/mL in data set [2] (pH 2.2, aqueous buffer); 6200 µg/mL in data set [2] (pH 3, aqueous buffer); 7200 µg/mL in data set [2] (pH 4, aqueous buffer). Besides, the solubility is 7200 µg/mL in data set [2] (pH 5, aqueous buffer); 7100 µg/mL in data set [2] (pH 6, aqueous buffer); 7800 µg/mL in data set [2] (pH 7.4, aqueous buffer); more than 10000 µg/mL in data set [2] (simulated gastric fluid); more than 10000 µg/mL in data set [2] (water). The “solubility in physiologically acceptable solvents” value in data set [2] is reported as “readily soluble in physiologically acceptable solvents”. For the same compound, the “pH dependent solubility profile in aqueous media” value in data set [2] (conclusion from Table I) is “high solubility in acidic and neutral media and strongly reduced solubility in basic media”. The “decomposition or impurities (Σ)” value in data set [3] (24 hours at 105° C., 72 hours at 70° C. and >90% rel. humid., or 24 hours in a Xenotester (λ=300-800 nm, 250 W·m^−2)) is reported as less than 2.4%. For the same compound, the “stability in the solid state” value in data set [3] (harsh stress conditions (105° C. 24 h; 70° C./>90% rel. humid. 72 h; Xenotester 24 h)) is “very stable in the solid state”.
For the compound `CC[C@@H]1C(=O)N(C)c2cnc(Nc3ccc(C(=O)N[C@H]4CC[C@H](N5CCN(CC6CC6)CC5)CC4)cc3OC)nc2N1C(C)C.Cl` [anhydrous form, N-[trans-4-[4-(cyclopropylmethyl)-1-piperazinyl]cyclohexyl]-4-[[(7R)-7-ethyl-5,6,7,8-tetrahydro-5-methyl-8-(1-methylethyl)-6-oxo-2-pteridinyl]amino]-3-methoxy-benzamide], the “stability of the anhydrous form” value in data set [1] (obtained by heating a sample up to 140° C.) was “not stable”.
In the case of `CC[C@@H]1C(=O)N(C)c2cnc(Nc3ccc(C(=O)N[C@H]4CC[C@H](N5CCN(CC6CC6)CC5)CC4)cc3OC)nc2N1C(C)C.Cl` [trihydrochloride salt, N-[trans-4-[4-(cyclopropylmethyl)-1-piperazinyl]cyclohexyl]-4-[[(7R)-7-ethyl-5,6,7,8-tetrahydro-5-methyl-8-(1-methylethyl)-6-oxo-2-pteridinyl]amino]-3-methoxy-benzamide], the “solubility in water compared to the free base” value in data set [2] is listed as “much more soluble than the free base”.
